Measured values taken from patent publication US12065468B2, “Heme-binding small peptide” (priority 2021, dated 2024).
Entries after “also recorded” stand apart in the source; their conditions may differ.

How the values were obtained:
[1] = test system: ribosomal machinery; test: In-vitro translation assay, GFP production; type: biochemical; settings: increasing concentrations; fluorescence and western blot; listed as L-NCR247
Text: FIG. 19. Interaction of NCR247 with ribosomal machinery leads to modification in translational capability. (A) In-vitro translation assay to measure GFP production with increasing concentrations of L or D-NCR247. […] (B) Western blot to measure the amount of GFP produced using Anti-GFP antibody.
Interaction of NCR247 with ribosomal machinery leads to modification in translational capability. To see if this is due to chiral interaction, we performed in-vitro translation assay and used GFP production and measured fluorescence as a read out. We also performed a western blot to measure the amount of GFP produced using Anti-GFP antibody.

[2] = test system: iron uptake genes (hmuP, foxA, fhuP, rhrA, fbpA), rirA; test: qRT-PCR of iron-related genes in S. meliloti; type: cell-based, Sinorhizobium meliloti; settings: 30 mins; for expression of iron uptake genes: 2 μM (NSR247 up to 15 uM)
Description: (§1) RNA isolation and qRT-PCR analysis: Cells were grown in LB until they reached an O.D.600 nm of 0.2. Then cells were spun down and suspended in minimal media with or without appropriate FeSO4 concentrations for 1 hour. NCR247 was then added and 5 ml of appropriate cultures were spun down at given time intervals. Total RNA was extracted using Trizol™ (Thermo Fisher Scientific) method. Qiagen RNeasy™ kit was used to purify the RNA. On-column DNA removal was carried out using DNase I from NEB. 500 ng of each RNA sample was used to make cDNA using the iScript™ cDNA synthesis kit (Biorad). qRT-PCRs were performed as described previously^86. The standard curve method was used for relative quantification. In short, a standard curve was generated for each gene of interest (including SMc00128) by setting up qpCR reactions to amplify increasing amounts of S. meliloti Rm 1021 genomic DNA. […] This curve was then used for extrapolating relative expression level of each gene of interest in a particular sample to obtain the starting quantities (SQ). This value is then normalized to the SQ values of SMc00128 obtained for respective sample. […] These normalized values are then expressed as an average of triplicates, with standard deviation (s.d.) represented by the error bars.

[3] = test system: S. meliloti; test: Cell cycle progression by flow cytometry on synchronized cultures; type: cell-based, Sinorhizobium meliloti; settings: synchronized culture, 4 uM; listed as L-NCR247
Text: FIG. 14. […] Cell cycle progression analysis using flow cytometry on synchronized cultures of Wild type S. meliloti and bacA mutant of S. meliloti treated with L or D-NCR247 when compared to untreated cells. Dark grey represents percentage of cells with 1 copy of genome and light grey represents percentage of cells with 2 copies of genomes. […] Data are presented as average of three biological replicates.
(§2) Since NCR247 treatment leads to gene expression change in several genes of the CtrA regulon, we investigated the CtrA regulon and the cell division inhibition role of NCR247. […] In addition, this phenotype is retained in a peptide transporter bacA mutant indicating cell division inhibition happens due to protein-peptide interaction outside the cytoplasm.

[4] = test system: Z-ring (FtsZ-GFP); test: Z-ring formation, FtsZ-GFP fluorescent microscopy; type: cell-based, Sinorhizobium meliloti; settings: 2 μM, 200 mins; listed as L-NCR247
Description: FIG. 15. […] Visualization of Z-ring formation during cell division by FtsZ-GFP labeled cells using fluorescent microscopy. Data indicates percentage of cells displaying fully formed Z-rings when synchronized and treated with upon treatment with 2 μM of L or D-NCR247 for 200 mins. […] Data are presented as average of three biological replicates ±s.d.
as §2

[5] = test system: Sinorhizobium meliloti; test: S. meliloti cell death in 24 hours (plating); type: cell-based
[6] = test system: Porphyromonas gingivalis; test: Cell viability assay for P. gingivalis; type: cell-based; settings: 48 hours, anaerobic, Brucella Broth
Description: (§3) Cell viability assays for H. influenza and P. gingivalis: Haemophilus influenzae Rd [KW20] was obtained from ATCC (51907). Standard growth and culturing techniques were followed as described previously^92. Cultures were grown in Brain Heart Infusion broth (BHI) supplemented with 7.5 μM of hemin and 2 μg/ml NAD with or without the addition of peptide for 24 hours. The number of viable cells for every reaction mixture was then determined by serially diluting and spotting 10-μl aliquots in triplicates on BHI agar plates supplemented with 15 μM hemin and 3 μM NAD. Porphyromonas gingivalis 2561 was obtained from ATCC (33277). Pre-reduced, anaerobically sterilized Brucella Broth and BRU—Brucella Blood Agar—were purchased from Anaerobe systems (CA, USA). They were opened just before use. Static cultures and plates were incubated at 37° C. in an incubation chamber from BD GasPak™ EZ Container Systems. Anaerobic conditions were maintained by using BD BBL CO2 gas generators and BD BB GasPak™ CO2 indicators. Cultures were grown anaerobically in Brucella Broth with or without addition of peptides for 48 hours and viable cells for every reaction mixture were then determined by serially diluting and spotting 10-μ1 aliquots in triplicates on Brucella Blood Agar.

[7] = test system: ctrA; test: qRT-PCR of ctrA; type: cell-based, Sinorhizobium meliloti; settings: 2 μM, 30 mins; listed as L-NCR247
Description: FIG. 16. […] The data are expressed as starting quantities (SQ) of respective mRNAs normalized to the control gene SMc00128 and are presented as average of three technical replicates
as §1, with “(SQ).” for “(SQ). This value is then normalized to the SQ values of SMc00128 obtained for respective sample.”, “bars. […]” for “bars.”

[8] = test system: Haemophilus influenzae; test: Cell viability assay for H. influenzae; type: cell-based; settings: 24 hours, BHI with 7.5 μM hemin
Description: as §3

[9] = test system: HEK-293; test: Cytotoxic activity assay (MTT); type: cell-based, Human; settings: 100 μM, 24 h, listed as L-NCR247
Description: Cytotoxic activity assay: Human embryonic kidney (HEK-293-ATCC-CRL-1573) cell lines were cultured in Dulbecco's Modified Eagle Medium (DMEM) supplemented with 10% Fetal Bovine Serum (FBS). When cells reached 10^4-10^5 cells per well, cells were supplemented with fresh DMEM without FBS, and then treated with 100 μM of NCR247 (L and D). After treatment for 24 h, MTT (Abeam, United Kingdom) stock solution was added to each well at a final concentration of 500 μg/mL and incubated in the dark for 4 h at 37° C. The absorbance at 570 nm was measured in the Tecan plate reader.

[10] = target: T1, Aβ (1-42)-heme complex (Homo sapiens, UniProt P05067); test: Peroxidase assay of Aβ-heme complex on TMB; type: biochemical; settings: equimolar addition of NCR247
T1 construct: equimolar addition of NCR247 to the Aβ (1-42) amyloid peptide-heme complex; purchased Genscript
T1 sequence (P05067 672-713 limits assumed, one chain of several): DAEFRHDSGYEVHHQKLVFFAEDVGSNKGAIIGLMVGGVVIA

Sequence: RNGCIVDPRCPYQQCRRPLYCRRR [NCR247]
- production of GFP [1]: inhibition of production of GFP; also recorded: Fluorescence units decreased
- expression of iron uptake genes [2]: increase in transcript levels of iron uptake genes
- expression of iron uptake genes ([2]; listed as L-NCR247): increase in expression of hmuP
- expression of rirA ([2]; 2 μM): rirA transcription was reduced
- cell division inhibition [3]: leads to cell division inhibition; also recorded: more percentage of cells having 2 copies of genome
- formation of Z-ring [4]: results in inhibition of assembly of the Z-ring; also recorded: greatly reduced
- Cell death in 24 hours ([5]; 6 uM peptide): 10000 fold decrease in fold decrease in cell number
- reduction in number of S. meliloti cells (bactericidal effect) ([5]; incubated 24 hours, plated in non-selective medium): causes a reduction in the number of S. meliloti cells
- growth / viable cell number of P. gingivalis [6]: can prevent the growth
- growth / viable cell number of P. gingivalis ([6]; listed as L-NCR247): Reduction of viable cell number
- expression of ctrA [7]: lowers the expression of CtrA; also recorded: decrease in expression of ctrA
- growth / viable cell number of H. influenzae [8]: can prevent the growth; also recorded: can block the growth
- growth / viable cell number of H. influenzae ([8]; listed as L-NCR247): Reduction of viable cell number
- cytotoxicity [9]: negligible cytotoxicity; also recorded: negligible hemolysis
- peroxidase activity of Aβ (1-42)-heme complex [10]: quenches its peroxidase activity
